Measured values: patent US9085576B2 (AMGEN INC., priority 2013, dated 2015)

Legend:
[1] = target: Beta Secretase enzyme (BACE) (Homo sapiens (Human), UniProt P56817); test: In vitro enzymatic BACE FRET assay; assay type: biochemical; details: read-out: BACE1 Enzyme assay IC50
Cathepsin D (Cat D) = Cathepsin D (Cat D) (Homo sapiens (Human), UniProt P07339); test: In vitro enzymatic Cathepsin D (Cat D) FRET assay; assay type: biochemical; details: read-out: CatD IC50
BACE = BACE (Homo sapiens (Human), UniProt P56817); test: In vitro BACE cell-based assay (Aβ40 in conditioned medium, sandwich ELISA)
BACE, sequence (P56817 46-501, species assumed): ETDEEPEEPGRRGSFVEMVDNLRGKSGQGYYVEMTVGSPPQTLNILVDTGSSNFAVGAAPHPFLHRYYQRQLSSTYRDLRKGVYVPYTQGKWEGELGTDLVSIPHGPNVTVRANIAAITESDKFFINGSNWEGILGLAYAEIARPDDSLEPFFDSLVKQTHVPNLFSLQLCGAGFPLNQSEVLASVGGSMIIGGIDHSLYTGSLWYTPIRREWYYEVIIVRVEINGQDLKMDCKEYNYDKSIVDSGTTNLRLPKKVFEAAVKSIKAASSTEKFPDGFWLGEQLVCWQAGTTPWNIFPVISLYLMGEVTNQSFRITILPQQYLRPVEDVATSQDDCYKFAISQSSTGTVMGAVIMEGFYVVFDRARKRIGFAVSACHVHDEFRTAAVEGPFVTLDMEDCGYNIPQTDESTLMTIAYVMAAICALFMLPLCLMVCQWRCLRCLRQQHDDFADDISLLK

Beta Secretase enzyme (BACE), sequence (P56817 46-501): as the sequence (P56817 46-501, species assumed) above
Cathepsin D (Cat D), sequence (P07339 65-412, species assumed): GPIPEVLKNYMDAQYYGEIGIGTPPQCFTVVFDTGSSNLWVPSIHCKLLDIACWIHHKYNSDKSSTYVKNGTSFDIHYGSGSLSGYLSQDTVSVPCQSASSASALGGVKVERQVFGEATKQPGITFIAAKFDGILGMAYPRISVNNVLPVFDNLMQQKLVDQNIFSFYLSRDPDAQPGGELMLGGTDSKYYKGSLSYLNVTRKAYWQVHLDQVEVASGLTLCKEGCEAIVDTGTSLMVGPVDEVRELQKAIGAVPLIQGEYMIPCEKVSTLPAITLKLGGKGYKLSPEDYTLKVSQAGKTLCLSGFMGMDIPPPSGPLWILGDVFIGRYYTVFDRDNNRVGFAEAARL

| IC50 [1] [µM] | IC50 (Cathepsin D (Cat D)) [µM] | IC50 (BACE) [µM] | SMILES |
| --- | --- | --- | --- |
| 0.0682 | > 44.4 | 0.13 | N#Cc1cnc2c(Nc3ccc(Cl)c([C@@]4(CF)N=C(N)O[C@@H]5C[C@@H]54)c3)ncc(F)c2c1 [Example 363, 8-((3-((1R,5S,6R)-3-amino-5-(fluoromethyl)-2-oxa-4-azabicyclo[4.1.0]hept-3-en-5-yl)-4-chlorophenyl)amino)-5-fluoro-1,7-naphthyridine-3-carbonitrile] |
| 0.224 | 596 | 0.122 | COc1cnc2c(Nc3ccc(F)c([C@@]4(C(F)F)N=C(N)O[C@@H]5C[C@@H]54)c3)ncnc2c1 [Example 364, (1R,5S,6R)-5-(difluoromethyl)-5-(2-fluoro-5-((7-methoxypyrido[3,2-d]pyrimidin-4-yl)amino)phenyl)-2-oxa-4-azabicyclo[4.1.0]hept-3-en-3-amine] |
| 0.205 | > 44.4 | 0.254 | NC1=N[C@@](c2cc(Nc3nccc4nc(C(F)(F)F)cnc34)ccc2F)(C(F)F)[C@H]2C[C@H]2O1 [Example 365, (1R,5S,6R)-5-(difluoromethyl)-5-(2-fluoro-5-((2-(trifluoromethyl)pyrido[3,4-b]pyrazin-5-yl)amino)phenyl)-2-oxa-4-azabicyclo[4.1.0]hept-3-en-3-amine] |
| > 13.7 | 128 | > 16 | N#Cc1cnc2c(Nc3cc(F)c(F)c([C@]4(C(F)F)N=C(N)O[C@H]5C[C@H]54)c3)ncc(F)c2c1 [Example 366, 8-((3-((1S,5R,6S)-3-amino-5-(difluoromethyl)-2-oxa-4-azabicyclo[4.1.0]hept-3-en-5-yl)-4,5-difluorophenyl)amino)-5-fluoro-1,7-naphthyridine-3-carbonitrile] |
| 0.0515 | 103 | 0.524 | N#Cc1cnc2c(Nc3cc(F)c(F)c([C@@]4(C(F)F)N=C(N)O[C@@H]5C[C@@H]54)c3)ncc(F)c2c1 [Example 367, 8-((3-((1R,5S,6R)-3-amino-5-(difluoromethyl)-2-oxa-4-azabicyclo[4.1.0]hept-3-en-5-yl)-4,5-difluorophenyl)amino)-5-fluoro-1,7-naphthyridine-3-carbonitrile] |
| 2.74 | 121 | 1.33 | NC1=N[C@@](c2cc(NCC3CCC3)ccc2F)(C(F)F)[C@H]2C[C@H]2O1 [Example 368, (1R,5S,6R)-5-(5-((cyclobutylmethyl)amino)-2-fluorophenyl)-5-(difluoromethyl)-2-oxa-4-azabicyclo[4.1.0]hept-3-en-3-amine] |
| 6.63 | 19.2 | 3.02 | NC1=N[C@@](c2cc(NCC#Cc3ccccc3)ccc2F)(C(F)F)[C@H]2C[C@H]2O1 [Example 369, (1R,5S,6R)-5-(difluoromethyl)-5-(2-fluoro-5-((3-phenylprop-2-yn-1-yl)amino)phenyl)-2-oxa-4-azabicyclo[4.1.0]hept-3-en-3-amine] |
| 13.7 | 63.6 | 8.85 | NC1=N[C@@](c2cc(NCC3(c4ccc(Cl)cc4)CC3)ccc2F)(C(F)F)[C@H]2C[C@H]2O1 [Example 370, (1R,5S,6R)-5-(5-(((1-(4-chlorophenyl)cyclopropyl)methyl)amino)-2-fluorophenyl)-5-(difluoromethyl)-2-oxa-4-azabicyclo[4.1.0]hept-3-en-3-amine] |
| 11.2 | 102 | 2.67 | NC1=N[C@@](c2cc(NC[C@@H]3C[C@H]3c3ccccc3)ccc2F)(C(F)F)[C@H]2C[C@H]2O1 [Example 371, (1R,5S,6R)-5-(difluoromethyl)-5-(2-fluoro-5-((((l(S,R),2(S,R))-2-phenylcyclopropyl)methyl)amino)phenyl)-2-oxa-4-azabicyclo[4.1.0]hept-3-en-3-amine] |
| 9.42 | 85.5 | 4.94 | NC1=N[C@@](c2cc(NC[C@H]3C[C@H]3c3ccccc3)ccc2F)(C(F)F)[C@H]2C[C@H]2O1 [Example 372, (1R,5S,6R)-5-(difluoromethyl)-5-(2-fluoro-5-((((1(S,R),2(R,S))-2-phenylcyclopropyl)methyl)amino)phenyl)-2-oxa-4-azabicyclo[4.1.0]hept-3-en-3-amine] |
| 6 | 78.9 | 2.53 | C=C1CC(CNc2ccc(F)c([C@@]3(C(F)F)N=C(N)O[C@@H]4C[C@@H]43)c2)C1 [Example 375, (1R,5S,6R)-5-(difluoromethyl)-5-(2-fluoro-5-(((3-methylenecyclobutyl)methyl)amino)phenyl)-2-oxa-4-azabicyclo[4.1.0]hept-3-en-3-amine] |
| 2.1 | 52.9 | 1.15 | NC1=N[C@@](c2cc(NCC3(C(F)(F)F)CC3)ccc2F)(C(F)F)[C@H]2C[C@H]2O1 [Example 376, (1R,5S,6R)-5-(difluoromethyl)-5-(2-fluoro-5-(((1-(trifluoromethyl)cyclopropyl)methyl)amino)phenyl)-2-oxa-4-azabicyclo[4.1.0]hept-3-en-3-amine] |
| 2.85 | 177 | 1.11 | NC1=N[C@@](c2cc(NCc3ccc(Cl)cn3)ccc2F)(C(F)F)[C@H]2C[C@H]2O1 [Example 377, (1R,5S,6R)-5-(5-(((5-chloropyridin-2-yl)methyl)amino)-2-fluorophenyl)-5-(difluoromethyl)-2-oxa-4-azabicyclo[4.1.0]hept-3-en-3-amine] |
| 1.41 | 188 | 0.564 | NC1=N[C@@](c2cc(NCC3CC3)ccc2F)(C(F)F)[C@H]2C[C@H]2O1 [Example 379, (1R,5S,6R)-5-(5-((cyclopropylmethyl)amino)-2-fluorophenyl)-5-(difluoromethyl)-2-oxa-4-azabicyclo[4.1.0]hept-3-en-3-amine] |
| 0.0251 | 1820 | 0.0085 | COCc1cc(C#N)cnc1C(=O)Nc1ccc(Cl)c([C@@]2(CF)N=C(N)O[C@@H]3C[C@@H]32)c1 [Example 386, N-(3-((1R,5S,6R)-3-amino-5-(fluoromethyl)-2-oxa-4-azabicyclo[4.1.0]hept-3-en-5-yl)-4-chlorophenyl)-5-cyano-3-(methoxymethyl)picolinamide] |
| 0.0391 | 352 | 0.0145 | N#Cc1cnc(C(=O)Nc2ccc(Cl)c([C@@]3(CF)N=C(N)O[C@@H]4C[C@@H]43)c2)c(CO)c1 [Example 387, N-(3-((1R,5S,6R)-3-amino-5-(fluoromethyl)-2-oxa-4-azabicyclo[4.1.0]hept-3-en-5-yl)-4-chlorophenyl)-5-cyano-3-(hydroxymethyl)picolinamide] |
| 0.0915 | 732 | 0.0747 | CN(C)c1cc(C#N)cnc1C(=O)Nc1ccc(F)c([C@@]2(C(F)F)N=C(N)O[C@@H]3C[C@@H]32)c1 [Example 389, N-(3-((1R,5S,6R)-3-amino-5-(difluoromethyl)-2-oxa-4-azabicyclo[4.1.0]hept-3-en-5-yl)-4-fluorophenyl)-5-cyano-3-(dimethylamino)picolinamide] |
| 0.198 | 147 | 0.0243 | N#Cc1cnc2c(Nc3ccc(F)c([C@@]4(CF)N=C(N)O[C@@H]5C[C@@H]54)c3)ncnc2c1 [Example 393, 4-((3-((1R,5S,6R)-3-amino-5-(fluoromethyl)-2-oxa-4-azabicyclo[4.1.0]hept-3-en-5-yl)-4-fluorophenyl)amino)pyrido[3,2-d]pyrimidine-7-carbonitrile] |
